The test can be described thus: Inhibition of recombinant perforin-mediated lysis of human Jurkat T cells by 51Cr release assay.

Molecules are shown by their SMILES. Some results are limits rather than exact numbers.

In general, IC50 refers to the concentration at which inhibition is half-maximal.

On to `Cc1cc2c(c(=S)[nH]1)C(=O)O/C2=C\c1ccc(N(C)C)cc1` [(Z)-1-(4-(Dimethylamino)benzylidene)-6-methyl-4-thioxo-4,5-dihydrofuro[3,4-c]pyridin-3(1H)-one], for which the IC50 is > 20 µM.

`Cc1cc2c(c(=S)[nH]1)C(=O)O/C2=C\c1ccc(Cl)cc1` [(Z)-1-(4-Chlorobenzylidene)-6-methyl-4-thioxo-4,5-dihydrofuro[3,4-c]pyridin-3(1H)-one]: the IC50 was > 20 µM.

As for `Cc1cc2c(c(=S)[nH]1)C(=O)O/C2=C\c1ccc(F)cc1` [(Z)-1-(4-Fluorobenzylidene)-6-methyl-4-thioxo-4,5-dihydrofuro[3,4-c]pyridin-3(1H)-one], the IC50 is > 20 µM.

Turning to `Cc1cc2c(c(=S)[nH]1)C(=O)O/C2=C\c1ncc[nH]1` [(Z)-1-((1H-Imidazol-2-yl)methylene)-6-methyl-4-thioxo-4,5-dihydrofuro[3,4-c]pyridin-3(1H)-one], the half-maximal inhibitory concentration (IC50) is > 20 µM.

On to `Cc1cc2c(c(=S)[nH]1)C(=O)O/C2=C\c1cc2ccccc2[nH]1` [(Z)-1-((1H-Indol-2-yl)methylene)-6-methyl-4-thioxo-4,5-dihydrofuro[3,4-c]pyridin-3(1H)-one], for which the IC50 stood at 1.3 µM.

Take `Cc1cc2c(c(=S)[nH]1)C(=O)O/C2=C\c1c[nH]c2ccccc12` [(Z)-1-((1H-Indol-3-yl)methylene)-6-methyl-4-thioxo-4,5-dihydrofuro[3,4-c]pyridin-3(1H)-one]: the IC50 is > 20 µM.

Consider `Cc1cc2c(c(=S)[nH]1)C(=O)O/C2=C\c1cccc2cc[nH]c12` [(Z)-1-((1H-Indol-7-yl)methylene)-6-methyl-4-thioxo-4,5-dihydrofuro[3,4-c]pyridin-3(1H)-one], for which the IC50 was found to be 4.1 µM.

With `Cc1cc2c(c(=S)[nH]1)C(=O)O/C2=C\c1ccc[nH]1` [(Z)-1-((1H-Pyrrol-2-yl)methylene)-6-methyl-4-thioxo-4,5-dihydrofuro[3,4-c]pyridin-3(1H)-one], the IC50 was > 20 µM.

As to `Cc1cc2c(c(=O)[nH]1)C(=O)O/C2=C\c1ccc[nH]1` [(Z)-1-((1H-Pyrrol-2-yl)methylene)-6-methylfuro[3,4-c]pyridine-3,4(1H,5H)-dione], the IC50 was > 20 µM.

As for `COc1cccc2oc(/C=C3\OC(=O)c4c3cc(C)[nH]c4=S)cc12` [(Z)-1-((4-Methoxybenzofuran-2-yl)methylene)-6-methyl-4-thioxo-4,5-dihydrofuro[3,4-c]pyridin-3(1H)-one], the IC50 was 6.7 µM.

Take `Cc1cc2c(c(=S)[nH]1)C(=O)O/C2=C\c1cc2cc(OCc3ccccc3)ccc2[nH]1` [(Z)-1-((5-(Benzyloxy)-1H-indol-2-yl)methylene)-6-methyl-4-thioxo-4,5-dihydrofuro[3,4-c]pyridin-3(1H)-one]: the IC50 is > 20 µM.

Turning to `Cc1cc2c(c(=S)[nH]1)C(=O)O/C2=C\c1csc2ccc(Br)cc12` [(Z)-1-((5-Bromobenzo[b]thiophen-3-yl)methylene)-6-methyl-4-thioxo-4,5-dihydrofuro[3,4-c]pyridin-3(1H)-one], the IC50 came to 7.5 µM.

As for `COc1ccc2[nH]c(/C=C3\OC(=O)c4c3cc(C)[nH]c4=S)cc2c1` [(Z)-1-((5-Methoxy-1H-indol-2-yl)methylene)-6-methyl-4-thioxo-4,5-dihydrofuro[3,4-c]pyridin-3(1H)-one], the IC50 turned out to be 4.6 µM.

Consider `COc1ccc2sc(/C=C3\OC(=O)c4c3cc(C)[nH]c4=S)cc2c1` [(Z)-1-((5-Methoxybenzo[b]thiophen-2-yl)methylene)-6-methyl-4-thioxo-4,5-dihydrofuro[3,4-c]pyridin-3(1H)-one], for which the IC50 was 13.1 µM.

With `COc1ccc2scc(/C=C3\OC(=O)c4c3cc(C)[nH]c4=S)c2c1` [(Z)-1-((5-Methoxybenzo[b]thiophen-3-yl)methylene)-6-methyl-4-thioxo-4,5-dihydrofuro[3,4-c]pyridin-3(1H)-one], the 50% inhibitory concentration (IC50) is 5.1 µM.

For `COc1ccc2oc(/C=C3\OC(=O)c4c3cc(C)[nH]c4=S)cc2c1` [(Z)-1-((5-Methoxybenzofuran-2-yl)methylene)-6-methyl-4-thioxo-4,5-dihydrofuro[3,4-c]pyridin-3(1H)-one], the IC50 is 2.4 µM.

Regarding `COc1cc2cc(/C=C3\OC(=O)c4c3cc(C)[nH]c4=S)[nH]c2cc1OCc1ccccc1` [(Z)-1-((6-(Benzyloxy)-5-methoxy-1H-indol-2-yl)methylene)-6-methyl-4-thioxo-4,5-dihydrofuro[3,4-c]pyridin-3(1H)-one], the IC50 is > 20 µM.

`COc1cc2cc(/C=C3\OC(=O)c4c3cc(C)[nH]c4=S)oc2cc1OCc1ccccc1` [(Z)-1-((6-(Benzyloxy)-5-methoxybenzofuran-2-yl)methylene)-6-methyl-4-thioxo-4,5-dihydrofuro[3,4-c]pyridin-3(1H)-one]: the 50% inhibitory concentration (IC50) turned out to be 5.1 µM.

For `COc1ccc2cc(/C=C3\OC(=O)c4c3cc(C)[nH]c4=S)[nH]c2c1` [(Z)-1-((6-Methoxy-1H-indol-2-yl)methylene)-6-methyl-4-thioxo-4,5-dihydrofuro[3,4-c]pyridin-3(1H)-one], the IC50 is 3.1 µM.

With `COc1ccc2cc(/C=C3\OC(=O)c4c3cc(C)[nH]c4=S)sc2c1` [(Z)-1-((6-Methoxybenzo[b]thiophen-2-yl)methylene)-6-methyl-4-thioxo-4,5-dihydrofuro[3,4-c]pyridin-3(1H)-one], the IC50 was 5.4 µM.

For the compound `COc1ccc2c(/C=C3\OC(=O)c4c3cc(C)[nH]c4=S)csc2c1` [(Z)-1-((6-Methoxybenzo[b]thiophen-3-yl)methylene)-6-methyl-4-thioxo-4,5-dihydrofuro[3,4-c]pyridin-3(1H)-one], the 50% inhibitory concentration (IC50) came out at 4.7 µM.

Turning to `COc1ccc2cc(/C=C3\OC(=O)c4c3cc(C)[nH]c4=S)oc2c1` [(Z)-1-((6-Methoxybenzofuran-2-yl)methylene)-6-methyl-4-thioxo-4,5-dihydrofuro[3,4-c]pyridin-3(1H)-one], the IC50 was found to be 7.2 µM.

Turning to `COc1cccc2cc(/C=C3\OC(=O)c4c3cc(C)[nH]c4=S)oc12` [(Z)-1-((7-Methoxybenzofuran-2-yl)methylene)-6-methyl-4-thioxo-4,5-dihydrofuro[3,4-c]pyridin-3(1H)-one], the IC50 was 3 µM.

With `Cc1cc2c(c(=S)[nH]1)C(=O)O/C2=C\c1cc2ccccc2s1` [(Z)-1-(Benzo[b]thiophen-2-ylmethylene)-6-methyl-4-thioxo-4,5-dihydrofuro[3,4-c]pyridin-3(1H)-one], the concentration for half-maximal inhibition (IC50) is 9.5 µM.

Take `Cc1cc2c(c(=O)[nH]1)C(=O)O/C2=C\c1cc2ccccc2s1` [(Z)-1-(Benzo[b]thiophen-2-ylmethylene)-6-methylfuro[3,4-c]pyridine-3,4(1H,5H)-dione]: the IC50 came to 4.6 µM.

Consider `Cc1cc2c(c(=O)[nH]1)C(=O)O/C2=C\c1csc2ccccc12` [(Z)-1-(Benzo[b]thiophen-3-ylmethylene)-6-methylfuro[3,4-c]pyridine-3,4(1H,5H)-dione], for which the IC50 worked out at 8.5 µM.

For the compound `Cc1cc2c(c(=S)[nH]1)C(=O)O/C2=C\c1cc2ccccc2o1` [(Z)-1-(Benzofuran-2-ylmethylene)-6-methyl-4-thioxo-4,5-dihydrofuro[3,4-c]pyridin-3(1H)-one], the IC50 was found to be 8.2 µM.

As for `Cc1cc2c(c(=S)[nH]1)C(=O)O/C2=C\c1coc2ccccc12` [(Z)-1-(Benzofuran-3-ylmethylene)-6-methyl-4-thioxo-4,5-dihydrofuro[3,4-c]pyridin-3(1H)-one], the IC50 is > 20 µM.

As to `Cc1cc2c(c(=S)[nH]1)C(=O)O/C2=C\c1ccc(-c2ccccc2)cc1` [(Z)-1-(Biphenyl-4-ylmethylene)-6-methyl-4-thioxo-4,5-dihydrofuro[3,4-c]pyridin-3(1H)-one], the IC50 is > 20 µM.

Take `Cc1cc2c(c(=S)[nH]1)C(=O)O/C2=C\c1ccco1` [(Z)-1-(Furan-2-ylmethylene)-6-methyl-4-thioxo-4,5-dihydrofuro[3,4-c]pyridin-3(1H)-one]: the IC50 worked out at 4.4 µM.

Turning to `Cc1cc2c(c(=S)[nH]1)C(=O)O/C2=C\c1ccoc1` [(Z)-1-(Furan-3-ylmethylene)-6-methyl-4-thioxo-4,5-dihydrofuro[3,4-c]pyridin-3(1H)-one], the IC50 is > 20 µM.

On to `Cc1cc2c(c(=S)[nH]1)C(=O)O/C2=C\c1ccccc1` [(Z)-1-Benzylidene-6-methyl-4-thioxo-4,5-dihydrofuro[3,4-c]pyridin-3(1H)-one], for which the IC50 was > 20 µM.

Regarding `COc1cccc2scc(/C=C3\OC(=O)c4c3cc(C)[nH]c4=S)c12` [(Z)-1-[(4-Methoxy-1-benzothien-3-yl)methylene]-6-methyl-4-thioxo-4,5-dihydrofuro[3,4-c]pyridine-3(1H)-one], the IC50 turned out to be 3.8 µM.

Regarding `CSc1ccc(/C=C2\OC(=O)c3c2cc(C)[nH]c3=S)cc1` [(Z)-6-Methyl-1-(4-(methylthio)benzylidene)-4-thioxo-4,5-dihydrofuro[3,4-c]pyridin-3(1H)-one], the IC50 is > 20 µM.

Turning to `Cc1ccc(/C=C2\OC(=O)c3c2cc(C)[nH]c3=S)cc1` [(Z)-6-Methyl-1-(4-methylbenzylidene)-4-thioxo-4,5-dihydrofuro[3,4-c]pyridin-3(1H)-one], the IC50 was > 20 µM.

As to `Cc1cc2c(c(=S)[nH]1)C(=O)O/C2=C\c1cc2ccccc2n1C` [(Z)-6-Methyl-1-((1-methyl-1H-indol-2-yl)methylene)-4-thioxo-4,5-dihydrofuro[3,4-c]pyridin-3(1H)-one], the IC50 was > 20 µM.

On to `Cc1cc2c(c(=S)[nH]1)C(=O)O/C2=C\c1cn(C)c2ccccc12` [(Z)-6-Methyl-1-((1-methyl-1H-indol-3-yl)methylene)-4-thioxo-4,5-dihydrofuro[3,4-c]pyridin-3(1H)-one], for which the IC50 was 4.3 µM.

On to `Cc1cc2c(c(=O)[nH]1)C(=O)O/C2=C\c1cn(C)c2ccccc12` [(Z)-6-Methyl-1-((1-methyl-1H-indol-3-yl)methylene)furo[3,4-c]pyridine-3,4(1H,5H)-dione], for which the IC50 was > 20 µM.

Turning to `Cc1cc2c(c(=S)[nH]1)C(=O)O/C2=C\c1cccn1C` [(Z)-6-Methyl-1-((1-methyl-1H-pyrrol-2-yl)methylene)-4-thioxo-a4,5-dihydrofuro[3,4-c]pyridin-3(1H)-one], the IC50 was > 20 µM.

As to `Cc1cc2c(c(=O)[nH]1)C(=O)N/C2=C\c1ccc(C)o1` [(Z)-6-Methyl-1-((5-methylfuran-2-yl)methylene)-1H-pyrrolo[3,4-c]pyridine-3,4(2H,5H)-dione], the IC50 was > 20 µM.

For the origin of these results see BindingDB's records for doi:10.1021/jm801063n (University of Auckland, 2009).
